Laboratory results from paper doi:10.1101/2023.03.24.534094v2 (biorxiv, 2023).
Read-outs that look alike come from different tables or passages of the source.

Key:
Test in all cases: biochemical
EphB1 = molecular target: T1, EphB1 (Homo sapiens, UniProt P54762)
T1 sequence (P54762 1-984): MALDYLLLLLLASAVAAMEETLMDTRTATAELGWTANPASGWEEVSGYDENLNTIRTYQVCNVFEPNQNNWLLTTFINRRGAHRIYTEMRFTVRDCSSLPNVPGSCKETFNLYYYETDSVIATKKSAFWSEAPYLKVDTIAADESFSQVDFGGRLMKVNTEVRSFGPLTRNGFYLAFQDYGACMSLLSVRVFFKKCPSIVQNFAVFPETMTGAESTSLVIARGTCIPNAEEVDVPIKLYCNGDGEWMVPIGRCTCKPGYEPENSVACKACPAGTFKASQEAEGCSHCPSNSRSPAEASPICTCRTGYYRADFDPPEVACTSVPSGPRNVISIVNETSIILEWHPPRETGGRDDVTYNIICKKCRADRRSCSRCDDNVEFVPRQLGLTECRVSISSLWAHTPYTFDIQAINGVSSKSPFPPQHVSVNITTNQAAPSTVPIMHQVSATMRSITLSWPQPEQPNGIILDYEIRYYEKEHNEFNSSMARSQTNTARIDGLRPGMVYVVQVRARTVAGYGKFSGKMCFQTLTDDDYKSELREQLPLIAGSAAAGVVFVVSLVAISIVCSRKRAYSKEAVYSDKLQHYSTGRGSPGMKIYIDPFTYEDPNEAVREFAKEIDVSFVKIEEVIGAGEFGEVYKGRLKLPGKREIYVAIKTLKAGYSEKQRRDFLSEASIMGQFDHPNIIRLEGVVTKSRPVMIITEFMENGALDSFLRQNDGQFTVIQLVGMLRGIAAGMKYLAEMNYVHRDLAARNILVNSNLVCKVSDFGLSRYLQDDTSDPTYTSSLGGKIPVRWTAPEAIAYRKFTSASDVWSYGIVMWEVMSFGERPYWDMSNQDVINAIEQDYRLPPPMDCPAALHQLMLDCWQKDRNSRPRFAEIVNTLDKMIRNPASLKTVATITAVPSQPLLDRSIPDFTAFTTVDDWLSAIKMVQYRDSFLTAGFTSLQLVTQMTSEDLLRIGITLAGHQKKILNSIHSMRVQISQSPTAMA

MAP2K6 = molecular target: T2, MAP2K6 (Homo sapiens, UniProt P52564)
T2 sequence (P52564 1-334): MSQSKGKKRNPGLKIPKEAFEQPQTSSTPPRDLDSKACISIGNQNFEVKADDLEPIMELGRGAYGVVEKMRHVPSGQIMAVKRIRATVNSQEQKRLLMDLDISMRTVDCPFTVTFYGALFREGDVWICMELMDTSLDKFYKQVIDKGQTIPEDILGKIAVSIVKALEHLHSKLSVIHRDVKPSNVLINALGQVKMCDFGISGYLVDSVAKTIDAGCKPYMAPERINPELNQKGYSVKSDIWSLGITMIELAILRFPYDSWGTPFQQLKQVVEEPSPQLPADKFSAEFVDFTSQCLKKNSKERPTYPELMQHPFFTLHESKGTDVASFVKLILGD

MAP3K5 = molecular target: T3, MAP3K5 (Homo sapiens, UniProt Q99683)
T3 sequence (Q99683 1-1374): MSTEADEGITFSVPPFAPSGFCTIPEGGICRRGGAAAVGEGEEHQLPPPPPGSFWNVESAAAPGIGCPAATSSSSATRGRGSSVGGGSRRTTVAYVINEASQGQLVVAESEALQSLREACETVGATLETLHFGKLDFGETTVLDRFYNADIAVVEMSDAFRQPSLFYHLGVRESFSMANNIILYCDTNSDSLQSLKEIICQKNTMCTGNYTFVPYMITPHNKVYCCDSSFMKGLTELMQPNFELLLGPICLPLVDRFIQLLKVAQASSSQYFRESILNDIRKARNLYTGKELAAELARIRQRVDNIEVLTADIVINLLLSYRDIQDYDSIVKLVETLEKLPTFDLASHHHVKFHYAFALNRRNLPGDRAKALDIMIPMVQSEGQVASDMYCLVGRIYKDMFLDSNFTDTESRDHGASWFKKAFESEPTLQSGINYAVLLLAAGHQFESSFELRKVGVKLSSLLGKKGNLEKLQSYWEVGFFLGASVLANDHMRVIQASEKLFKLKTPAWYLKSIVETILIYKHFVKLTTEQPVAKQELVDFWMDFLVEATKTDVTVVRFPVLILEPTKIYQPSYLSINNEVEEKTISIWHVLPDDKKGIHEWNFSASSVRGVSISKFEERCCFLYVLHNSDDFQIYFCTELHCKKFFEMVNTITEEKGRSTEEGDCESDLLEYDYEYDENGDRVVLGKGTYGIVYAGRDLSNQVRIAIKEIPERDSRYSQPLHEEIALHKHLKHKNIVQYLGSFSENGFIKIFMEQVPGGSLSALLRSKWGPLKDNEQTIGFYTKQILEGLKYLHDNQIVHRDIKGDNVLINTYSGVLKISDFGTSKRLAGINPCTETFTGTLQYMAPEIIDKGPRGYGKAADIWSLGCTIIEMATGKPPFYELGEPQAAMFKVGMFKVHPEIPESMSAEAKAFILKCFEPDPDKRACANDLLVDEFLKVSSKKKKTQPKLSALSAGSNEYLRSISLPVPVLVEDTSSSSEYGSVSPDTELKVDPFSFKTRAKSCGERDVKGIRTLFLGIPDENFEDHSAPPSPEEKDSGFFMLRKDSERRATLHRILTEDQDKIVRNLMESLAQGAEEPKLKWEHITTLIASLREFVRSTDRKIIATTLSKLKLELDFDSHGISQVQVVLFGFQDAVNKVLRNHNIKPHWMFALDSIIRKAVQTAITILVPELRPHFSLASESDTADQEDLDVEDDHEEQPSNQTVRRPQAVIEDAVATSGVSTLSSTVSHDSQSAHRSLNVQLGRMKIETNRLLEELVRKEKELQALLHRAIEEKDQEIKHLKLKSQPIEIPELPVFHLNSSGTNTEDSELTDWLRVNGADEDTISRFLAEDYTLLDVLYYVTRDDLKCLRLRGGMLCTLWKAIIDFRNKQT

p38a = p38a (Homo sapiens, UniProt Q16539)
Sequence of p38a (Q16539 whole entry): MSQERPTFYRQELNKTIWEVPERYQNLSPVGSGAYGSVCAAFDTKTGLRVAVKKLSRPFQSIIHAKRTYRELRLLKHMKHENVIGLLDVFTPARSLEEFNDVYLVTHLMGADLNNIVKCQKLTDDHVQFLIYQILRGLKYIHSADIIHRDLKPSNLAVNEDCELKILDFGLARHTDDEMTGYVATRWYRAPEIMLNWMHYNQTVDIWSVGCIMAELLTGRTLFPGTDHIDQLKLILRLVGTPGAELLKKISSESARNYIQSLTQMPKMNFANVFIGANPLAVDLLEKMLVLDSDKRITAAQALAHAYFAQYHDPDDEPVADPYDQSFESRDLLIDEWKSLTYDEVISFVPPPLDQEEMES

A ΔTm at 10 µM (EphB1; read-out: dTm 10) of 5.5 °C, a ΔTm at 10 µM (MAP2K6; read-out: dTm 10) of 1.5 °C and a ΔTm at 10 µM (MAP3K5; read-out: dTm 10) of 1.7 °C were found for `CNc1ncc2cc(-c3cc(Cl)ccc3Br)c(=O)n(CCCCN)c2n1` [compound 10, 8-(4-Aminobutyl)-6-(2-bromo-5-chlorophenyl)-2-(methylamino)pyrido[2,3-d]pyrimidin-7(8H)-one] in this work. For the same compound, the ΔTm at 10 µM (p38a; read-out: dTm 10) was 6.1 °C.

A ΔTm at 10 µM (EphB1; read-out: dTm 8) of 5.3 °C, a ΔTm at 10 µM (MAP2K6; read-out: dTm 8) of 1.3 °C and a ΔTm at 10 µM (MAP3K5; read-out: dTm 8) of 1.5 °C were found for `CNc1ncc2cc(-c3cc(Cl)ccc3Cl)c(=O)n(CCCCN)c2n1` [compound 8, 8-(4-Aminobutyl)-6-(2,5-dichlorophenyl)-2-(methylamino)pyrido[2,3-d]pyrimidin-7(8H)-one] in this work. It also gave a ΔTm at 10 µM (p38a; read-out: dTm 8) of 6 °C.

A ΔTm at 10 µM (EphB1; read-out: dTm 9) of 3.3 °C, a ΔTm at 10 µM (MAP2K6; read-out: dTm 9) of 0.8 °C and a ΔTm at 10 µM (MAP3K5; read-out: dTm 9) of 0.4 °C were found for `CNc1ncc2cc(-c3cc(C(F)(F)F)ccc3Cl)c(=O)n(CCCCN)c2n1` [compound 9, 8-(4-Aminobutyl)-6-(2-chloro-5-(trifluoromethyl)phenyl)-2-(methylamino)pyrido[2,3-d]pyrimidin-7(8H)-one] in this work. For the same compound, the ΔTm at 10 µM (p38a; read-out: dTm 9) was 4.2 °C.

A ΔTm at 10 µM (EphB1; read-out: dTm 11) of 4.7 °C, a ΔTm at 10 µM (MAP2K6; read-out: dTm 11) of 1.6 °C and a ΔTm at 10 µM (MAP3K5; read-out: dTm 11) of 1.6 °C were found for `CNc1ncc2cc(-c3cc(Br)ccc3Br)c(=O)n(CCCCN)c2n1` [compound 11, 8-(4-Aminobutyl)-6-(2,5-dibromophenyl)-2-(methylamino)pyrido[2,3-d]pyrimidin-7(8H)-one] in this work. For the same compound, the ΔTm at 10 µM (p38a; read-out: dTm 11) was 6.4 °C.

A ΔTm at 10 µM (EphB1; read-out: dTm 12) of 3.5 °C, a ΔTm at 10 µM (MAP2K6; read-out: dTm 12) of 3.8 °C and a ΔTm at 10 µM (MAP3K5; read-out: dTm 12) of 9.1 °C were found for `CNc1ncc2cc(-c3cc(F)c(-c4cccc(C)n4)cc3F)c(=O)n(CCCCN)c2n1` [compound 12, 8-(4-Aminobutyl)-6-(2,5-difluoro-4-(6-methylpyridin-2-yl)phenyl)-2-(methylamino)pyrido[2,3-d]pyrimidin-7(8H)-one] in this work. It also gave a ΔTm at 10 µM (p38a; read-out: dTm 12) of 0.4 °C.
